Read-outs that look alike come from different tables or passages of the source.
Assays:
[1] = system: bloodstream-form Trypanosoma brucei; experiment: Activity against bloodstream-form Trypanosoma brucei (Alamar Blue growth inhibition); type: cell-based, Trypanosoma brucei (strain 427); conditions: for IC50 / IC90: Trypanosoma brucei, bloodstream form; for IC50: concentration that inhibits growth by 50%, read-out: T. brucei IC50; for IC90: concentration that inhibits growth by 90%, read-out: T. brucei IC90; for S.I. (selectivity index): ratio of IC50 values obtained with L6 cells and T. brucei
Procedure: Bloodstream form T. brucei (strain 427) were cultured at 37 °C in modified Iscove's medium. Trypanocidal activity was assessed by growing parasites in microtiter plates in the presence of various drug concentrations. […] The plates were incubated for 48 hours at 37 °C and 20 μL Alamar Blue was then added to each well. After an additional overnight incubation, the fluorescence was determined using a Gemini fluorescent plate reader (Molecular Devices). Inhibition of growth was calculated by comparison with control values and IC50 and IC90 values were determined in triplicate using linear regression analysis.

L6 cells [2] = experiment: Cytotoxic activity against rat skeletal myoblast L6 cells (Alamar Blue); type: cell-based; conditions: 120 h, cytotoxicity, 5 days
Procedure: The cytotoxicity against mammalian cells was assessed using microtitre plates. Briefly, L6 cells (a rat skeletal muscle line) were seeded at 1 × 10^4 mL^−1 in 200 μL of RPMI-1640 growth medium (with 10% fetal calf serum) containing 7 different compound concentrations in a range previously established to encompass both the IC50 and IC90 values. The plates were incubated for 5 days at 37 °C and 20 μL Alamar Blue (Biosource Ltd, Wilton, North Yorkshire England.) was then added to each well. After an additional 8 hours incubation, the fluorescence was determined using a Gemini fluorescent plate reader (Molecular Devices). Inhibition of growth was calculated by comparison with control values and IC50 and IC90 values were determined in triplicate using linear regression analysis.

T. cruzi epimastigotes [3] = experiment: Activity against Trypanosoma cruzi epimastigotes (Alamar Blue growth inhibition); type: cell-based, Trypanosoma cruzi (strain CL Brener); conditions: CL Brener
Procedure: Trypanocidal activity was assessed by growing parasites in microtiter plates in the presence of various drug concentrations. […] The plates were incubated for 4 days at 28 °C and 20 μL Alamar Blue (Biosource UK Ltd) was then added to each well. After an additional 3 days incubation, the fluorescence was determined using a Gemini fluorescent plate reader (Molecular Devices). Inhibition of growth was calculated by comparison with control values and IC50 and IC90 values were determined in triplicate using linear regression analysis.

[4] = system: L. infantum promastigotes; experiment: Activity against Leishmania infantum promastigotes (resazurin assay); type: cell-based, Leishmania infantum (MHOM/MA/67/ITMAP-263); conditions: for IC50: Leishmania infantum, promastigotes, 72 h, 95% CI in brackets
Procedure: Promastigotes from the L. infantum strain (MHOM/MA/67/ITMAP-263) were cultivated in 5 ml of Schneider's insect medium, which was supplemented with 10% heat-inactivated fetal bovine serum (FBS), 200 U ml^−1 of penicillin/streptomycin, 6 μg ml^−1 of phenol red, and 5 mM of HEPES. The cultures were maintained in an incubator at 27 °C and diluted to a concentration of 2 × 10^5 cells per ml every 5 days. For the assays the parasites used were equivalent to late/log with two or three days of culture.
The efficacy of the compounds against L. infantum promastigotes was evaluated using a resazurin-based assay. Parasites were added to 100 μl of serial dilutions of the compounds in supplemented complete medium at a cell density of 5 × 10^5 ml^−1. As a quality control, a dose–response curve with the antileishmanial drug miltefosine was included in all assays. The final volume of each assay was 200 μl per well, and each condition was tested in duplicate. After a 72-hour incubation under specific conditions for each parasite, 20 μl of a 0.5 mM resazurin solution was added, and the plates were incubated for an additional 4 hours under the same conditions. Fluorescence was measured at 544 nm for excitation and 590 nm for emission using a Synergy 2 Multi-Mode Reader (Biotek, Winooski, VT, USA). Results were expressed as the percentage of parasite growth inhibition compared to controls (untreated parasites) and represent the average of at least three independent experiments. The effect was evaluated by determining the IC50 value (the concentration required to inhibit 50% growth), calculated using non-linear regression curves via GraphPad Prism version 8.1.1 for Windows (GraphPad Software, San Diego, CA, USA).

[5] = system: L. infantum intracellular amastigotes; experiment: Activity against intracellular L. infantum amastigotes in THP-1 derived macrophages (luciferase); type: cell-based, Leishmania infantum (MHOM/MA/67/ITMAP-263); conditions: for inhibition at 10 µM / IC50: Leishmania infantum; for inhibition at 10 µM: read-out: L. infantum (intracellular amastigotes) % of growth inhibition at 10 μM ± ST DEV; for IC50: read-out: L. infantum (intracellular amastigotes) IC50 (μM), 95% CI
Procedure: Leishmania infantum Luciferase-expressing L. infantum (strain MHOM/MA/67/ITMAP-263) axenic amastigotes were cultured in MAA/20 medium at 37 °C with 5% CO2, as described by Sereno et al. 1998.[26] The parasites were maintained in 5 mL T25 ventilated flasks and subcultured every seven days at a concentration of 1 × 10^6 cells per mL.
The activity against intracellular amastigotes of L. infantum was evaluated using a modified method described by Santarem, Tavares, and Cordeiro-da-Silva (2019).[27] THP-1 cells were differentiated into macrophages using PMA, as previously outlined. The differentiated macrophages were then infected with L. infantum axenic amastigotes expressing episomal luciferase at a macrophage-to-amastigote ratio of 1 : 10 for four hours at 37 °C in a 5% CO2 atmosphere. After this incubation, non-internalized parasites were washed away, and various concentrations of test compounds were added in a final volume of 100 μL. A dose–response curve for miltefosine was included in all assays to serve as a quality control. Each experimental condition was tested in quadruplicate. After 72 hours of incubation, the medium was replaced with 100 μL of PBS, and 25 μL of Glo-lysis buffer from the Steady-Glo Luciferase Assay System (Promega, Madison, WI, USA) was added. The plates were then agitated at 100 rpm for 10 minutes at room temperature. Following this, 30 μL of the Steady-Glo reagent (Promega, Madison, WI, USA) was added, and the mixture was incubated for 15 minutes in the dark under the same conditions. A total of 140 μL from each well was transferred to white-bottom 96-well plates, and luminescence intensity was measured using a Synergy 2 Multi-Mode Reader (Biotek, Winooski, VT, USA). The antileishmanial effect was assessed by comparing the results with those from non-treated infected cells. The IC50 value were determined through non-linear regression analysis using GraphPad Prism version 8.1.1 for Windows (GraphPad Software, San Diego, CA, USA). Results represent the average of at least three independent experiments.

[6] = Cytotoxicity on THP-1-derived macrophages (MTT assay); type: cell-based; conditions: human, THP-1-derived macrophages (PMA-differentiated), value or interval
Procedure: The THP-1 cell line, a human leukemia line (ATCC® TIB-202™), was cultured in RPMI-1640 medium supplemented with 10% heat-inactivated fetal bovine serum (FBS), 2 mM. L-Glutamine, 100 IU mL^−1 penicillin/streptomycin, and 20 mM HEPES. The cells were maintained in a humidified incubator at 37 °C with 5% CO2. Subculturing was performed every three days, using 20 mL of media at a concentration of 2 × 10^5 cells per mL in a T75 flask. All cell culture reagents were purchased from Lonza Bioscience (Morrisville, NC).
The cytotoxicity of the compounds on THP-1-derived macrophages was evaluated using the colorimetric MTT assay (3-(4,5-dimethylthiazol-2-yl)-2,5-diphenyltetrazolium bromide), as described in Magoulas et al. (2021).[28] THP-1 cells were suspended in complete RPMI medium at a density of 1 × 10^6 cells per mL, and 100 μL of this suspension was seeded into each well of a 96-well plate. The cells were differentiated into macrophages by adding 40 ng mL^−1 of phorbol-myristate 13-acetate (PMA, Sigma, Saint Louis, MI, USA) for 24 hours, followed by replacement with fresh medium for an additional 24 hours. Subsequently, the cells were incubated with 100 μL of various compounds, diluted in complete RPMI medium, at concentrations ranging from 100 to 12.5 μM. Each condition was tested in triplicate. After 72 hours of incubation at 37 °C with 5% CO2, the medium was removed, and 200 μL of a 0.5 mg mL^−1 MTT solution, diluted in RPMI, was added to each well. The plates were incubated for an additional 4 hours. Following this incubation, 160 μL of the medium was removed and replaced with 160 μL of 2-propanol. Absorbance was measured at 570 nm using a Synergy 2 Multi-Mode Reader (Biotek, Winooski, VT, USA). Cytotoxicity was determined by presenting the CC50 (the concentration of the drug that reduces cell viability by 50%) interval or by calculating the CC50 value through non-linear regression analysis using GraphPad Prism version 8.1.1 for Windows (GraphPad Software, San Diego, CA, USA). The results represent the average of at least three independent experiments.

[7] = system: T. cruzi intracellular amastigotes; experiment: microbe, parasite or virus in culture; type: cell-based, Trypanosoma cruzi CL Brener PpyRE9h:mScarlet; conditions: Trypanosoma cruzi, 120 h; in HeLa cells, 5 days
Procedure: Assays were performed in 96-well black (clear bottom) microtitre plates (Corning Inc.). HeLa ^† cells were seeded at 10^4 per well, incubated for 3 days, and then infected with T. cruzi CL Brener PpyRE9h : mScarlet[25] culture form trypomastigotes (1 : 1 multiplicity of infection). After 16 hours, extracellular parasites were removed by washing in growth medium (×3), test compounds were added, and the plates incubated for 5 days. Fluorescence intensities were then determined using a BMG FLUOstar Omega plate reader (ex 545 nm, em 590 nm), and the data analysed using GraphPad Prism 9.0 software. The values were expressed as IC50/90 ± SD and are the mean of triplicate experiments.

L6 cells [8] = system: L6 cells; parameters: method as in PMID 26479031; conditions: cytotoxicity; cited from earlier work
[9] = system: bloodstream-form Trypanosoma brucei; conditions: read-out: T. brucei IC50; cited from earlier work
T. cruzi epimastigotes [10] = conditions: read-out: T. cruzi (epimastigotes) IC50; cited from earlier work

| SMILES | IC50 [1] [nM] | IC90 [1] [nM] | S.I. (selectivity index) [1] | IC50 (L6 cells [2]) [nM] | IC50 (T. cruzi epimastigotes [3]) [nM] | IC90 (T. cruzi epimastigotes [3]) [nM] | IC50 [4] [µM] | inhibition at 10 µM ([5]; THP-1, 72 h) [%] | IC50 ([5]; THP-1, 72 h) [µM] | CC50 at 72 h [6] [nM] | IC50 [7] [nM] | IC90 [7] [nM] | IC50 (L6 cells [8]) [nM] | SI (promastigotes) CC50/Li IC50 ([4]; THP-1 CC50 / L. infantum promastigote IC50) | IC50 ([5]; THP-1 derived macrophages, 72 h, 95% CI in brackets) [µM] | SI (intracellular amastigotes) CC50/Li ia IC50 ([5]; THP-1 CC50 / L. infantum intracellular amastigote IC50) | IC50 [9] [nM] | IC50 (T. cruzi epimastigotes [10]) [nM] |
| --- | --- | --- | --- | --- | --- | --- | --- | --- | --- | --- | --- | --- | --- | --- | --- | --- | --- | --- |
| O=C(NCc1ccc(C2C3CC4CC(C3)CC2C4)cc1)c1ccc([N+](=O)[O-])o1 (stereo not shown) [2b, N-[4-(2-Adamantyl)benzyl]-5-nitrofuran-2-carboxamide] | 17 ± 3 | 31 ± 1 | 95 | 1600 ± 100 | 560 ± 20 | 1200 ± 20 | 0.09 | 84.6 ± 15.6 | 3.97 | 12500 to 25000 | – | – | – | – | – | – | – | – |
| O=C(NCCCn1cnc([N+](=O)[O-])n1)c1ccc(C23CC4CC(CC(C4)C2)C3)cc1 [6d, 4-(1-Adamantyl)-N-[3-(3-nitro-1H-1,2,4-triazol-1-yl)propyl] benzamide] | 180 ± 50 | 310 ± 40 | 123 | 22000 ± 1000 | 450 ± 10 | 1100 ± 20 | 0.27 | – | – | 50000 to 100000 | 3730 ± 440 | 8420 ± 440 | – | – | – | – | – | – |
| O=C(CCc1ccc(C23CC4CC(CC(C4)C2)C3)cc1)NCCCn1cnc([N+](=O)[O-])n1 [6f, 3-[4-(1-Adamantyl)phenyl]-N-[3-(3-nitro-1H-1,2,4-triazol-1-yl)propyl]propanamide] | 140 ± 20 | 280 ± 10 | 134 | 19000 ± 2000 | 440 ± 20 | 910 ± 10 | 0.39 | – | – | 50000 to 100000 | 2440 ± 570 | 8230 ± 1780 | – | – | – | – | – | – |
| O=C(Cn1ccnc1[N+](=O)[O-])NCc1ccccc1 [Bzn, benznidazole, reference compound] | – | – | – | – | 5400 ± 200 | – | – | – | – | – | 1040 ± 320 | 2540 ± 810 | 510000 ± 22000 | – | – | – | – | – |
| CCCCCCCCCCCCCCCCOP(=O)([O-])OCC[N+](C)(C)C [MF, miltefosine, reference compound] | – | – | – | – | – | – | 11.9 | 92 ± 5 | – | 30000 | – | – | – | 2.5 | 2.65 | 11.3 | – | – |
| CC1CS(=O)(=O)CCN1/N=C/c1ccc([N+](=O)[O-])o1 (stereo not shown) [Nfx, nifurtimox] | – | – | 7 | – | – | – | – | – | – | – | – | – | – | – | – | – | 4400 ± 700 | 3100 ± 500 |
